Assay [1] deals with AMARE. The assay is described as follows: Post-emergence herbicidal action against AMARE. The settings on record: 1280 g/ha, visual rating about 3 weeks after treatment. The class given is in vivo, Amaranthus retroflexus. On the procedure:
(§1) [table] Seeds of mono- and dicotyledonous weed plants are placed in plastic pots in sandy loam soil (twin sowing with one species each of mono- or dicotyledonous weed plants per pot), covered with soil and cultivated in a greenhouse under controlled growth conditions. 2 to 3 weeks after sowing, the test plants are treated at the one-leaf stage. The compounds of the invention, formulated in the form of wettable powders (WP) or as emulsion concentrates (EC), are applied to the green parts of the plants as aqueous suspension or emulsion with addition of 0.5% additive at a water application rate equivalent to 600 litres per hectare. After the test plants have been kept in the greenhouse under optimum growth conditions for about 3 weeks, the activity of the preparations is rated visually in comparison to untreated controls. For example, 100% activity=the plants have died, 0% activity=like control plants. Tables 5.1-5.16 below show the effects of selected compounds of the general formula (I) according to Tables 1 to 3 on various harmful plants at an application rate corresponding to 1280 or 320 g/ha, which have been obtained by the aforementioned experimental method.

For assay [2], the system named is SETVI. The assay is described as follows: Post-emergence herbicidal action against SETVI. The class given is in vivo, Setaria viridis. The conditions noted are these: 1280 g/ha, post-emergence at one-leaf stage, rated visually after about 3 weeks vs untreated controls. Here is the method:
as §1

For assay [3], the system named is STEME. The assay is described as follows: Pre-emergence herbicidal action against STEME. The assay is classed as in vivo, Stellaria media. The settings on record: 1280 g/ha, scored visually after about 3 weeks vs untreated controls. The source says:
(§2) Seeds of mono- and dicotyledonous weed plants are placed in plastic pots in sandy loam soil (doubly sown with one species each of mono- or dicotyledonous weed plants per pot) and covered with soil. The compounds of the invention, formulated in the form of wettable powders (WP) or as emulsion concentrates (EC), are then applied onto the surface of the covering soil as aqueous suspension or emulsion with addition of 0.5% additive at a water application rate equivalent to 600 litres per hectare. After the treatment, the pots are placed in a greenhouse and kept under good growth conditions for the trial plants. After about 3 weeks, the effect of the preparations is scored visually in comparison with untreated controls as percentages. For example, 100% activity=the plants have died, 0% activity=like control plants. [table] Tables 4.1-4.15 below show the effects of selected compounds of the general formula (I) according to Tables 1 to 3 on various harmful plants at an application rate corresponding to 1280 or 320 g/ha, which have been obtained by the aforementioned experimental method.

In assay [4] the test system is SETVI. The assay is described as follows: Pre-emergence herbicidal action against SETVI. The assay is classed as in vivo, Setaria viridis. The settings on record: 1280 g/ha, scored visually after about 3 weeks vs untreated controls.
From the text: as §2

The test system of assay [5] is ECHCG. The assay is described as follows: Pre-emergence herbicidal action against ECHCG. The class given is in vivo, Echinochloa crus-galli. The conditions noted are these: scored visually after about 3 weeks vs untreated controls, 100% = plants have died, 0% = like control plants.
From the text: as §2

The subject of assay [6] is AMARE. The assay is described as follows: Pre-emergence herbicidal action against AMARE. The assay is classed as in vivo, Amaranthus retroflexus. The settings on record: 1280 g/ha, scored visually after about 3 weeks vs untreated controls.
From the text: as §2

Another assay concerns MATIN. The assay is described as follows: Post-emergence herbicidal action against MATIN. The assay is classed as in vivo, Matricaria inodora. The settings on record: 1280 g/ha, visual rating about 3 weeks after treatment. Here is the method:
as §1

In assay [7] the test system is ECHCG. The assay is described as follows: Post-emergence herbicidal action against ECHCG. The class given is in vivo, Echinochloa crus-galli. The settings on record: 1280 g/ha, post-emergence at one-leaf stage, rated visually after about 3 weeks vs untreated controls. Here is the method:
as §1

Assay [8] deals with STEME. The assay is described as follows: Post-emergence herbicidal action against STEME. The class given is in vivo, Stellaria media. The settings on record: 1280 g/ha, visual rating about 3 weeks after treatment. Here is the method:
as §1

Experimental findings from patent US20230066946A1, “1,5-DIPHENYLPYRAZOLYL-3-OXYALKYL ACIDS AND 1-PHENYL-5-THIENYLPYRAZOLYL-3-OXYALKYL ACIDS AND THE USE THEREOF FOR CONTROL OF UNWANTED PLANT GROWTH” (Bayer Aktiengesellschaft, priority 2019, published 2023) are described below.

As to `C=C(C)CNC(=O)COc1nn(-c2ccccc2F)c(-c2ccccc2)c1Br` [III-001], the “Post-emergence action against AMARE in %” value with AMARE [1] is on record as 100%. The “Post-emergence action against SETVI in %” value with SETVI [2] was 100%. Further, the “Pre-emergence action against STEME in %” value in the assay on STEME [3] was found to be 100%. Further, in the assay with SETVI [4], the “Pre-emergence action against SETVI in %” value worked out at 100%. In addition, the “Pre-emergence action at 1280 g/ha against ECHCG in %” value in the assay with ECHCG [5] was 90%.
As to `C=CCNC(=O)COc1nn(-c2ccccc2F)c(-c2ccc(F)c(F)c2)c1[N+](=O)[O-]` [III-066], in the assay with SETVI [2], the “Post-emergence action against SETVI in %” value is reported as 100%. Also, in the assay with STEME [3], the “Pre-emergence action against STEME in %” value was 90%. For the same compound, the “Pre-emergence action against SETVI in %” value in the assay with SETVI [4] is listed as 90%. In the assay with AMARE [6], the “Pre-emergence action against AMARE in %” value amounted to 90%.
With `O=C(O)COc1nn(-c2ccccc2F)c(-c2ccc(F)c(F)c2)c1Br` [I-136], the “Post-emergence action against AMARE in %” value in the assay with AMARE [1] was determined as 90%. Further, the “Post-emergence action against MATIN in %” value in the assay with MATIN is 90%. Further, in the assay with ECHCG [7], the “Post-emergence action against ECHCG in %” value is reported as 100%. The “Post-emergence action against STEME in %” value in the assay with STEME [8] was 100%. The “Pre-emergence action against STEME in %” value in the assay with STEME [3] turned out to be 100%. The “Pre-emergence action against SETVI in %” value in the assay with SETVI [4] came to 100%. Further, the “Pre-emergence action against AMARE in %” value with AMARE [6] was determined as 100%. For the same compound, the “Pre-emergence action at 1280 g/ha against ECHCG in %” value in the assay with ECHCG [5] stood at 100%.
As to `CCOC(=O)COc1nn(-c2ccccc2F)c(-c2ccc(F)c(F)c2)c1[N+](=O)[O-]` [I-143], the “Post-emergence action against AMARE in %” value in the assay on AMARE [1] came out at 100%. Further, the “Post-emergence action against MATIN in %” value in the assay on MATIN is reported as 100%. In addition, the “Post-emergence action against ECHCG in %” value in the assay with ECHCG [7] stood at 100%. The “Post-emergence action against STEME in %” value in the assay on STEME [8] is recorded as 100%. Also, the “Pre-emergence action against STEME in %” value in the assay on STEME [3] came to 90%. In the assay with SETVI [4], the “Pre-emergence action against SETVI in %” value amounted to 100%. Further, the “Pre-emergence action against AMARE in %” value with AMARE [6] is 100%.
`COC(=O)[C@H](C)Oc1nn(-c2cccc(F)c2)c(-c2cccc(F)c2)c1C#N` [I-126]: in the assay on AMARE [1], the “Post-emergence action against AMARE in %” value is on record as 100%. In addition, the “Post-emergence action against SETVI in %” value in the assay on SETVI [2] was determined as 90%. The “Post-emergence action against ECHCG in %” value in the assay with ECHCG [7] was determined as 90%. For the same compound, the “Post-emergence action against STEME in %” value in the assay on STEME [8] is 100%. In addition, the “Pre-emergence action against STEME in %” value in the assay with STEME [3] is given as 100%. Further, the “Pre-emergence action against SETVI in %” value in the assay on SETVI [4] is reported as 100%. For the same compound, the “Pre-emergence action against AMARE in %” value in the assay with AMARE [6] is 100%.
In the case of `CC(Oc1nn(-c2c(F)cccc2F)c(-c2ccc(F)c(F)c2)c1Br)C(=O)O` (stereo not drawn) [I-167], the “Post-emergence action against ECHCG in %” value with ECHCG [7] is reported as 90%. Moreover, the “Post-emergence action against STEME in %” value with STEME [8] is given as 100%. Moreover, the “Pre-emergence action against STEME in %” value in the assay on STEME [3] came out at 100%. Besides, in the assay with SETVI [4], the “Pre-emergence action against SETVI in %” value worked out at 100%. The “Pre-emergence action against AMARE in %” value with AMARE [6] turned out to be 100%. The “Pre-emergence action at 1280 g/ha against ECHCG in %” value in the assay with ECHCG [5] was 100%.
With `COC(=O)C(C)Oc1nn(-c2ccccc2)c(-c2ccc(F)cc2)c1Cl` (stereo not drawn) [I-145], in the assay on MATIN, the “Post-emergence action against MATIN in %” value stood at 90%. In addition, in the assay with SETVI [2], the “Post-emergence action against SETVI in %” value amounted to 90%. Further, in the assay with STEME [8], the “Post-emergence action against STEME in %” value worked out at 100%. For the same compound, the “Pre-emergence action against STEME in %” value with STEME [3] is 100%. The “Pre-emergence action against SETVI in %” value in the assay on SETVI [4] is given as 100%. Further, in the assay on AMARE [6], the “Pre-emergence action against AMARE in %” value amounted to 90%. Moreover, the “Pre-emergence action at 1280 g/ha against ECHCG in %” value in the assay with ECHCG [5] came out at 100%.
For the compound `C#CCNC(=O)COc1nn(-c2ccc(F)cc2)c(-c2cccc(F)c2)c1Cl` [III-023], the “Post-emergence action against SETVI in %” value in the assay on SETVI [2] came to 100%. Moreover, the “Pre-emergence action against STEME in %” value in the assay on STEME [3] was found to be 100%. In addition, in the assay with SETVI [4], the “Pre-emergence action against SETVI in %” value came to 100%. Also, the “Pre-emergence action against AMARE in %” value in the assay on AMARE [6] is 90%. Further, the “Pre-emergence action at 1280 g/ha against ECHCG in %” value in the assay on ECHCG [5] came to 90%.
For `CCOC(=O)COc1nn(-c2ccccc2OC)c(-c2ccc(F)cc2)c1Br` [I-089], in the assay with AMARE [1], the “Post-emergence action against AMARE in %” value came to 100%. Also, in the assay with SETVI [2], the “Post-emergence action against SETVI in %” value was 100%.
As for `O=C(O)COc1nn(-c2ccc(F)cc2)c(-c2cccc(F)c2)c1Cl` [I-120], the “Post-emergence action against MATIN in %” value in the assay on MATIN stood at 90%. Moreover, the “Post-emergence action against ECHCG in %” value in the assay on ECHCG [7] came to 90%. Moreover, the “Pre-emergence action against STEME in %” value with STEME [3] was found to be 100%. Besides, the “Pre-emergence action against SETVI in %” value with SETVI [4] was 100%. Besides, the “Pre-emergence action against AMARE in %” value with AMARE [6] amounted to 100%. The “Pre-emergence action at 1280 g/ha against ECHCG in %” value with ECHCG [5] worked out at 90%.
